What was measured:
Assay in all cases: relative viability (nuclei count vs DMSO), 5 days (fraction); higher = more cells survive
[1] = compound: Cc1nc(C(=O)NCC(=O)O)c(O)c2ccc(Oc3ccccc3)cc12 [FG-4592] + Cc1nc(Nc2ncc(C(=O)Nc3c(C)cccc3Cl)s2)cc(N2CCN(CCO)CC2)n1 [Dasatinib] (partner 0.075 µM)
Summary of the method: (§1)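 Lung cancer cell lines in 1536-well plates got either a single drug or a fixed anchor-drug dose together with five library-drug doses (not always all listed) in √10 steps, by pin tool, on the day after seeding. Nuclei were counted after 5 days, and relative viability is the treated-to-vehicle ratio of nuclei counts. Values are medians of duplicate plates.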

[2] = compound: CC1=CC(=C(N1C2=CC=C(C=C2)Cl)C)C(=O)CN3CCCCC3 [IU1-47] + Nc1ncn([C@H]2C[C@H](O)[C@@H](CO)O2)c(=O)n1 [Decitabine] (partner 2 µM)
Summary of the method: as §1

[3] = compound: Cc1nc(C(=O)NCC(=O)O)c(O)c2ccc(Oc3ccccc3)cc12 [FG-4592] + CCNC(=O)c1noc(-c2cc(C(C)C)c(O)cc2O)c1-c1ccc(CN2CCOCC2)cc1 [Luminespib] (partner 0.01 µM)
Summary of the method: as §1

[4] = compound: CC1=CC(=C(N1C2=CC=C(C=C2)Cl)C)C(=O)CN3CCCCC3 [IU1-47] + CC(C)C[C@H](NC(=O)[C@H](Cc1ccccc1)NC(=O)c1cnccn1)B(O)O [Bortezomib] (partner 0.002 µM)
Summary of the method: as §1

With NCI-H1755 the relative viability ([1]; first compound 0.08 µM) was 0.416, the relative viability ([1]; first compound 0.253 µM) was 0.435 and the relative viability ([1]; first compound 0.8 µM) was 0.34. It also gave a relative viability ([1]; first compound 2.53 µM) of 0.45, a relative viability ([1]; first compound 8 µM) of 0.406 and a relative viability ([2]; first compound 0.08 µM) of 0.712. It also gave a relative viability ([2]; first compound 0.253 µM) of 0.694, a relative viability ([2]; first compound 0.8 µM) of 0.653 and a relative viability ([2]; first compound 2.53 µM) of 0.797. For the same cell line, the relative viability ([2]; first compound 8 µM) was 0.766, the relative viability ([3]; first compound 0.08 µM) was 0.417 and the relative viability ([3]; first compound 0.253 µM) was 0.295. It also gave a relative viability ([3]; first compound 0.8 µM) of 0.331, a relative viability ([3]; first compound 2.53 µM) of 0.492 and a relative viability ([3]; first compound 8 µM) of 0.517. The relative viability ([4]; first compound 0.08 µM) was 1.15, the relative viability ([4]; first compound 0.253 µM) was 1.06 and the relative viability ([4]; first compound 0.8 µM) was 1.03. For the same cell line, the relative viability ([4]; first compound 2.53 µM) was 1.09 and the relative viability ([4]; first compound 8 µM) was 0.92.
In the case of NCI-H1792, the relative viability ([1]; first compound 0.08 µM) is reported as 0.871, the relative viability ([1]; first compound 0.253 µM) is reported as 0.72 and the relative viability ([1]; first compound 0.8 µM) is reported as 0.846. For the same cell line, the relative viability ([1]; first compound 2.53 µM) was 0.668, the relative viability ([1]; first compound 8 µM) was 0.748 and the relative viability ([2]; first compound 0.08 µM) was 0.625. The relative viability ([2]; first compound 0.253 µM) was 0.639, the relative viability ([2]; first compound 0.8 µM) was 0.611 and the relative viability ([2]; first compound 2.53 µM) was 0.497. For the same cell line, the relative viability ([2]; first compound 8 µM) was 0.371, the relative viability ([3]; first compound 0.08 µM) was 0.36 and the relative viability ([3]; first compound 0.253 µM) was 0.492. It also gave a relative viability ([3]; first compound 0.8 µM) of 0.454, a relative viability ([3]; first compound 2.53 µM) of 0.413 and a relative viability ([3]; first compound 8 µM) of 0.478. The relative viability ([4]; first compound 0.08 µM) was 1.03, the relative viability ([4]; first compound 0.253 µM) was 1.07 and the relative viability ([4]; first compound 0.8 µM) was 1.1. It also gave a relative viability ([4]; first compound 2.53 µM) of 0.879 and a relative viability ([4]; first compound 8 µM) of 0.662.
Cell Line NCI-H1915 has a relative viability ([1]; first compound 0.08 µM) of 0.324, a relative viability ([1]; first compound 0.253 µM) of 0.283 and a relative viability ([1]; first compound 0.8 µM) of 0.286. It also gave a relative viability ([1]; first compound 2.53 µM) of 0.31, a relative viability ([1]; first compound 8 µM) of 0.257 and a relative viability ([2]; first compound 0.08 µM) of 0.269. For the same cell line, the relative viability ([2]; first compound 0.253 µM) was 0.256, the relative viability ([2]; first compound 0.8 µM) was 0.27 and the relative viability ([2]; first compound 2.53 µM) was 0.25. It also gave a relative viability ([2]; first compound 8 µM) of 0.247, a relative viability ([3]; first compound 0.08 µM) of 0.721 and a relative viability ([3]; first compound 0.253 µM) of 0.828. It also gave a relative viability ([3]; first compound 0.8 µM) of 0.911, a relative viability ([3]; first compound 2.53 µM) of 0.781 and a relative viability ([3]; first compound 8 µM) of 0.697. The relative viability ([4]; first compound 0.08 µM) was 1.02, the relative viability ([4]; first compound 0.253 µM) was 1.05 and the relative viability ([4]; first compound 0.8 µM) was 1.04. For the same cell line, the relative viability ([4]; first compound 8 µM) was 1.02.
NCI-H1975 gave a relative viability ([1]; first compound 0.08 µM) of 0.416, a relative viability ([1]; first compound 0.253 µM) of 0.313 and a relative viability ([1]; first compound 0.8 µM) of 0.351. It also gave a relative viability ([1]; first compound 2.53 µM) of 0.277, a relative viability ([1]; first compound 8 µM) of 0.366 and a relative viability ([2]; first compound 0.08 µM) of 0.397. It also gave a relative viability ([2]; first compound 0.253 µM) of 0.381, a relative viability ([2]; first compound 0.8 µM) of 0.585 and a relative viability ([2]; first compound 2.53 µM) of 0.361. It also gave a relative viability ([2]; first compound 8 µM) of 0.378, a relative viability ([3]; first compound 0.08 µM) of 0.305 and a relative viability ([3]; first compound 0.253 µM) of 0.244. The relative viability ([3]; first compound 0.8 µM) was 0.2, the relative viability ([3]; first compound 2.53 µM) was 0.187 and the relative viability ([3]; first compound 8 µM) was 0.0934. The relative viability ([4]; first compound 0.08 µM) was 0.375, the relative viability ([4]; first compound 0.253 µM) was 0.408 and the relative viability ([4]; first compound 0.8 µM) was 0.455. The relative viability ([4]; first compound 2.53 µM) was 0.308 and the relative viability ([4]; first compound 8 µM) was 0.317.
With NCI-H1993 the relative viability ([1]; first compound 0.08 µM) was 0.513, the relative viability ([1]; first compound 0.253 µM) was 0.631 and the relative viability ([1]; first compound 0.8 µM) was 0.473. For the same cell line, the relative viability ([1]; first compound 2.53 µM) was 0.547, the relative viability ([1]; first compound 8 µM) was 0.396 and the relative viability ([2]; first compound 0.08 µM) was 0.602. It also gave a relative viability ([2]; first compound 0.253 µM) of 0.641, a relative viability ([2]; first compound 0.8 µM) of 0.628 and a relative viability ([2]; first compound 2.53 µM) of 0.687. It also gave a relative viability ([2]; first compound 8 µM) of 0.537, a relative viability ([3]; first compound 0.08 µM) of 0.806 and a relative viability ([3]; first compound 0.253 µM) of 0.868. For the same cell line, the relative viability ([3]; first compound 0.8 µM) was 0.771, the relative viability ([3]; first compound 2.53 µM) was 0.984 and the relative viability ([3]; first compound 8 µM) was 0.869. The relative viability ([4]; first compound 0.08 µM) was 1.26, the relative viability ([4]; first compound 0.253 µM) was 1.25 and the relative viability ([4]; first compound 0.8 µM) was 1.18. For the same cell line, the relative viability ([4]; first compound 2.53 µM) was 1.37 and the relative viability ([4]; first compound 8 µM) was 1.18.
NCI-H2009 gave a relative viability ([1]; first compound 0.08 µM) of 0.323, a relative viability ([1]; first compound 0.253 µM) of 0.172 and a relative viability ([1]; first compound 0.8 µM) of 0.267. It also gave a relative viability ([1]; first compound 2.53 µM) of 0.283, a relative viability ([1]; first compound 8 µM) of 0.27 and a relative viability ([2]; first compound 0.08 µM) of 0.36. It also gave a relative viability ([2]; first compound 0.253 µM) of 0.448, a relative viability ([2]; first compound 0.8 µM) of 0.366 and a relative viability ([2]; first compound 2.53 µM) of 0.382. For the same cell line, the relative viability ([2]; first compound 8 µM) was 0.406, the relative viability ([3]; first compound 0.08 µM) was 1.04 and the relative viability ([3]; first compound 0.253 µM) was 0.936. For the same cell line, the relative viability ([3]; first compound 0.8 µM) was 1.01, the relative viability ([3]; first compound 2.53 µM) was 0.959 and the relative viability ([3]; first compound 8 µM) was 0.999. For the same cell line, the relative viability ([4]; first compound 0.08 µM) was 1.11, the relative viability ([4]; first compound 0.253 µM) was 1.13 and the relative viability ([4]; first compound 0.8 µM) was 0.998. It also gave a relative viability ([4]; first compound 2.53 µM) of 0.513 and a relative viability ([4]; first compound 8 µM) of 1.05.
Work on NCI-H2023 yielded a relative viability ([1]; first compound 0.08 µM) of 0.612, a relative viability ([1]; first compound 0.253 µM) of 0.529 and a relative viability ([1]; first compound 0.8 µM) of 0.54. For the same cell line, the relative viability ([1]; first compound 2.53 µM) was 0.522, the relative viability ([1]; first compound 8 µM) was 0.377 and the relative viability ([2]; first compound 0.08 µM) was 0.182. For the same cell line, the relative viability ([2]; first compound 0.253 µM) was 0.212, the relative viability ([2]; first compound 0.8 µM) was 0.215 and the relative viability ([2]; first compound 2.53 µM) was 0.248. It also gave a relative viability ([2]; first compound 8 µM) of 0.225, a relative viability ([3]; first compound 0.08 µM) of 0.617 and a relative viability ([3]; first compound 0.253 µM) of 0.634. The relative viability ([3]; first compound 0.8 µM) was 0.698, the relative viability ([3]; first compound 2.53 µM) was 0.773 and the relative viability ([3]; first compound 8 µM) was 0.599. The relative viability ([4]; first compound 0.08 µM) was 0.94, the relative viability ([4]; first compound 0.253 µM) was 1.15 and the relative viability ([4]; first compound 0.8 µM) was 1. It also gave a relative viability ([4]; first compound 2.53 µM) of 0.481 and a relative viability ([4]; first compound 8 µM) of 1.12.
Cell Line NCI-H2085 has a relative viability ([1]; first compound 0.08 µM) of 0.17, a relative viability ([1]; first compound 0.253 µM) of 0.228 and a relative viability ([1]; first compound 0.8 µM) of 0.196. The relative viability ([1]; first compound 2.53 µM) was 0.254, the relative viability ([1]; first compound 8 µM) was 0.264 and the relative viability ([2]; first compound 0.08 µM) was 0.54. It also gave a relative viability ([2]; first compound 0.253 µM) of 0.549, a relative viability ([2]; first compound 0.8 µM) of 0.566 and a relative viability ([2]; first compound 2.53 µM) of 0.519. For the same cell line, the relative viability ([2]; first compound 8 µM) was 0.478, the relative viability ([3]; first compound 0.08 µM) was 0.439 and the relative viability ([3]; first compound 0.253 µM) was 0.47. For the same cell line, the relative viability ([3]; first compound 0.8 µM) was 0.389, the relative viability ([3]; first compound 2.53 µM) was 0.426 and the relative viability ([3]; first compound 8 µM) was 0.462. It also gave a relative viability ([4]; first compound 0.08 µM) of 0.969, a relative viability ([4]; first compound 0.253 µM) of 0.968 and a relative viability ([4]; first compound 0.8 µM) of 1.06. For the same cell line, the relative viability ([4]; first compound 2.53 µM) was 0.948 and the relative viability ([4]; first compound 8 µM) was 0.944.

From the supplement of paper PMC10307832
